Assay results published in patent publication US8258118B2, “4-pyridinone compounds and their use for cancer” (Bristol-Myers Squibb Company, priority 2008, dated 2012).

Key:
[1] = tested on: GTL-16 gastric carcinoma xenografts; assay: In vivo efficacy, GTL-16 human gastric tumor xenograft model; conditions: for overt toxicity: administered once daily for 14 days, any of the dose levels
Description: N-(4-(2-Amino-3-chloropyridin-4-yloxy)-3-fluorophenyl)-5-(4-fluorophenyl)-4-oxo-1,4-dihydropyridine-3-carboxamide (Example 1) and (3-(4-(2-amino-3-chloropyridin-4-yloxy)-3-fluorophenylcarbamoyl)-5-(4-fluorophenyl)-4-oxopyridin-1(4H)-yl)methyl dihydrogen phosphate (Example 2) were evaluated for in vivo efficacy against the GTL-16 human gastric tumor xenograft model. Example 2 is a prodrug of Example 1.

[2] = molecular target: T1, GST-Met kinase (Homo sapiens, UniProt P08581); assay: Met kinase assay; type: biochemical
T1 construct: made in house
Description: Incubation mixtures employed for the Met kinase assay contain a baculovirus expressed GST-Met kinase, the synthetic substrate polyGlu:Tyr, (4:1), ATP, ATP-γ-^33P and buffer containing Mn^+2, DTT, BSA, and Tris. Reactions were incubated for 60 minutes at 30° C. and stopped by the addition of cold trichloroacetic acid (TCA) to a final concentration 8%. TCA precipitates were collected onto GF/C UniFilter plates (Packard Instrument Co., Meriden, Conn.) using a FILTERMATE® universal harvester (Packard Instrument Co., Meriden, Conn.) and the filters are quantitated using a TopCount 96/384-well liquid scintillation counter (Packard Instrument Co., Meriden, Conn.). Dose response curves were generated to determine the concentration required to inhibit 50% of kinase activity (IC50). Compounds were dissolved at 10 mM in dimethyl sulfoxide (DMSO) and evaluated at ten concentrations, each in duplicate. The final concentration of DMSO in the assay is 1.7%. IC50 values were derived by non-linear regression.

[3] = tested on: GTL-16 cells; assay: GTL-16 gastric carcinoma proliferation assay (MTS); type: cell-based; conditions: Homo sapiens, 72 h, 0.5% fetal calf serum
Description: Inhibition of GTL-16 cell growth was assessed by a MTS assay using a CELLTITER 96® Aqueous Non-Radioactive Proliferation Assay kit from Promega. The kit is composed of solutions of a novel tetrazolium compound (3-(4,5-dimethylthiazol-2-yl)-5-(3-carboxymethoxyphenyl)-2-(4-sulfophenyl)-2H-tetrazolium, inner salt; MTS) and an electron coupling reagent (phenazine methosulfate, PMS). In this colormetric assay, the conversion of MTS into aqueous, soluble formazan is accomplished by dehydrogenase enzymes found in metabolically active cells. The quantity of formazan product as measured by its absorbance at 490 nm is directly proportional to the number of living cells in culture.
GTL-16 cells were inoculated into 96 well microtiter plates in 0.5% fetal calf serum and incubated at 37° C., 5% CO2, 95% air and 100% relative humidity for 24 h prior to addition of a compound. At the time of drug treatment, one plate of the cell line was processed using the above kit to represent a measurement of the cell population at the time of drug addition. Following drug treatment, the plates were incubated for an additional 72 h before processing, and measuring cell populations. Each compound was tested at 8 different concentrations in triplicate, as was the untreated control sample. Growth inhibition of 50% (IC50) is calculated by analysis of the data in Excel that uses a 4 parameter logistic equation with data fitted using the Levenburg Marquardt algorithm

[4] = tested on: U87 glioblastoma xenografts; assay: In vivo efficacy, U87 glioblastoma xenograft model; conditions: 25 mg/kg, dosed orally once daily for 14 days
Description: Example 1 was also tested in the U87 glioblastoma model, a Met driven tumor based on an HGF autocrine mechanism of Met activation.

[5] = molecular target: VEGFR-2 (Homo sapiens, UniProt P35968); assay: VEGFR-2 kinase assay; type: biochemical
Description: Incubation mixtures employed for the VEGFR-2 assay contain the synthetic substrate poly glu/tyr, (4:1), ATP, ATP-γ-^33P and buffer containing Mn^+2, DTT, BSA, and Tris buffer. The reaction is initiated by addition of enzyme and after 60 minutes at room temperature is terminated by the addition of 30% TCA to a final concentration of 15% TCA. Inhibitors are brought to 10 mM in 100% DMSO. Assays are prepared in a 96 well format in quadruplicate. Compounds are diluted 1:500 in 100% DMSO and then 1:10 in water for a final DMSO concentration of 10%. Aliquots (10 μL) are added to rows B-H in a 96 well format of 10% DMSO. The compound (20 μl) is added to row A at a concentration 5 fold higher than running conditions. Aliquots (10 μL) are transferred to each row followed by six serial dilutions with mixing, and at row F 10 μL are discarded. Row G is a control with no compound and row H is no compound and no enzyme control. Enzyme and substrate are delivered using a Tomtec Quadra station.
Plates are covered with sticky plate tops, incubated at 27° C. for 60 minutes, and then acid precipitated with TCA for 20 minutes on ice. […] Activity is determined by quantitating the incorporated radioactivity using a Packard TopCount Microplate Scintillation Counter following the addition of Microscint-20 cocktail into each dried well of the UniFilter microplates.

T1 sequence (P08581 25-1390): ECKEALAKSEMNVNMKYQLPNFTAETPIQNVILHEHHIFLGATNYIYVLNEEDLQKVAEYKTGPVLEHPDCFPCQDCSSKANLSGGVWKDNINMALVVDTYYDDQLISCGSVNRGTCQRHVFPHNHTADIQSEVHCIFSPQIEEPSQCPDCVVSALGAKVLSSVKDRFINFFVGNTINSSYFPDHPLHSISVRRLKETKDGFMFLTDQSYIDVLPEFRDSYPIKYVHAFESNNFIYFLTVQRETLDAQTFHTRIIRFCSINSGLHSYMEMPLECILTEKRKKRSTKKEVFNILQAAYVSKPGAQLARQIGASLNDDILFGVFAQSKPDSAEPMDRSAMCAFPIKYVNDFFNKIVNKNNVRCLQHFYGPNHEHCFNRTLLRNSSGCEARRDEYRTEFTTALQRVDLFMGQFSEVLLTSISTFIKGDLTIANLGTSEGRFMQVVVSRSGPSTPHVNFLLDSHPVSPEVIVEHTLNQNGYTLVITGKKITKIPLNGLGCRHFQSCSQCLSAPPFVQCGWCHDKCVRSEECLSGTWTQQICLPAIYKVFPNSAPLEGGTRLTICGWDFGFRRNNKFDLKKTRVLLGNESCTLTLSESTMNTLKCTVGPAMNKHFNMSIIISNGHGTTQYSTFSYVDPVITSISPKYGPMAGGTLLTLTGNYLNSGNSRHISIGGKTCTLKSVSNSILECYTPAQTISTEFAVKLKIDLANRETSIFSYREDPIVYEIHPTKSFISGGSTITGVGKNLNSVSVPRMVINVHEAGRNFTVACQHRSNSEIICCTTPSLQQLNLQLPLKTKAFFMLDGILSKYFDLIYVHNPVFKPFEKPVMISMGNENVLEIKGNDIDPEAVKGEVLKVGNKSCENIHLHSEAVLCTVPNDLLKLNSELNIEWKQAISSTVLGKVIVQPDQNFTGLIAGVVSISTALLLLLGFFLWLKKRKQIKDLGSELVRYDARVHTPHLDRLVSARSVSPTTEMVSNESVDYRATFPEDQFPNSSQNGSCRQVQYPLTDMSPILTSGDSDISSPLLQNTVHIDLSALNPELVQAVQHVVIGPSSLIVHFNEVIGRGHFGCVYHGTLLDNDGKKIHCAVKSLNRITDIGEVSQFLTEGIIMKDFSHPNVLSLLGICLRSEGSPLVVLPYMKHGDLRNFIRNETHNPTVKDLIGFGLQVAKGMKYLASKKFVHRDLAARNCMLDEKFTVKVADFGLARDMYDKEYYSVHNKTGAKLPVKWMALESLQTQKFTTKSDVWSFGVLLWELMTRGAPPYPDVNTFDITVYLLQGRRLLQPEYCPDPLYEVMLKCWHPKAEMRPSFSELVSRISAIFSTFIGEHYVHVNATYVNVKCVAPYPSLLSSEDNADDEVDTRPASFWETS
VEGFR-2, sequence (P35968 20-1356): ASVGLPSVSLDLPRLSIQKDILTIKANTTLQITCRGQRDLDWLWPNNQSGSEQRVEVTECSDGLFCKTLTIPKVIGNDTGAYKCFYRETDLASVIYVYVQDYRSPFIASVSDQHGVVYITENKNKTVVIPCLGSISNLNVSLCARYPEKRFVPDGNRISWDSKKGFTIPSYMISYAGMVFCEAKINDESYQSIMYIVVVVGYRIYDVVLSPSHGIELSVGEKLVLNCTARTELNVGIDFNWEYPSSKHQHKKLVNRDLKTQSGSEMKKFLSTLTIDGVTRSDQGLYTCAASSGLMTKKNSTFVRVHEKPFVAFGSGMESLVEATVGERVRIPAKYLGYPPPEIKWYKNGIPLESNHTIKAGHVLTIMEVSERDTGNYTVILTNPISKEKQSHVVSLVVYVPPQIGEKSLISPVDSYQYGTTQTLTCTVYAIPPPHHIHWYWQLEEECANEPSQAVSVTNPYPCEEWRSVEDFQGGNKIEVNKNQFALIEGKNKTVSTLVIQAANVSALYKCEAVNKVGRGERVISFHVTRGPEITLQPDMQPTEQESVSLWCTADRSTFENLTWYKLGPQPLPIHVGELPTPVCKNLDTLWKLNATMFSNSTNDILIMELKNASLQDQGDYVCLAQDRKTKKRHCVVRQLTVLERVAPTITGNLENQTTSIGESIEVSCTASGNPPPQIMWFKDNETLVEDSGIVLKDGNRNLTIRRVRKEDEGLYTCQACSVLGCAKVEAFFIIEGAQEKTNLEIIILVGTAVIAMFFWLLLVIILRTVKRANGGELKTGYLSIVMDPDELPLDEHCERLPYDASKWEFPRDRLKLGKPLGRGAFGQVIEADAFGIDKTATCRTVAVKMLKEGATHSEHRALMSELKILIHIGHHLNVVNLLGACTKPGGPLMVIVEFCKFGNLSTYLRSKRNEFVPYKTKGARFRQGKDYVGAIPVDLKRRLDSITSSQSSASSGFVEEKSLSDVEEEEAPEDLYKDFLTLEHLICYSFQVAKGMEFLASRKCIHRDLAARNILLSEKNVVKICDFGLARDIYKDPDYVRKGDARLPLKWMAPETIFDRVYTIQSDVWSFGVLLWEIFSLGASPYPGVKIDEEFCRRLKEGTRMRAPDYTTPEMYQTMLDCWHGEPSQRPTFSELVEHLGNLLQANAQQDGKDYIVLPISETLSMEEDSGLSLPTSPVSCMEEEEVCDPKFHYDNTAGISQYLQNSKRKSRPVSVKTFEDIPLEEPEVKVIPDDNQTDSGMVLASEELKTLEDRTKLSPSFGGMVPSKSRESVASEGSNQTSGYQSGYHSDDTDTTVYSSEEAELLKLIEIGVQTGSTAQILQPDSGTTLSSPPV

IC50 [2] [nM]	IC50 [3] [nM]	Compound	antitumor activity (tumor stasis) ([1]; 31.2 mg/kg of Example 2 (equimolar to 25 mg/kg Example 1), once daily for 14 days)	overt toxicity [1]	antitumor activity (tumor stasis) [4]	antitumor activity (tumor stasis) ([1]; 25 mg/kg of Example 1, once daily for 14 days)	IC50 [5] [nM]
		Nc1nccc(Oc2ccc(NC(=O)c3cn(COP(=O)(O)O)cc(-c4ccc(F)cc4)c3=O)cc2F)c1Cl [Example 2, (3-(4-(2-Amino-3-chloropyridin-4-yloxy)-3-fluorophenylcarbamoyl)-5-(4-fluorophenyl)-4-oxopyridin-1(4H)-yl)methyl dihydrogen phosphate]	complete tumor stasis	No overt toxicity			
160	5400	Nc1cc(Oc2ccc(NC(=O)c3c[nH]cc(Cc4ccccc4)c3=O)cc2F)ccn1 [Compound A, N-(4-(2-Aminopyridin-4-yloxy)-3-fluorophenyl)-5-benzyl-4-oxo-1,4-dihydropyridine-3-carboxamide]					
4.8	170	Nc1cc(Oc2ccc(NC(=O)c3cccn(-c4ccc(F)cc4)c3=O)cc2F)ccn1 [Compound B, N-(4-(2-Aminopyridin-4-yloxy)-3-fluorophenyl)-1-(4-fluorophenyl)-2-oxo-1,2-dihydropyridine-3-carboxamide]					40

Compound	IC50 [2] [nM]	IC50 [3] [nM]	antitumor activity (tumor stasis) ([1]; 31.2 mg/kg of Example 2 (equimolar to 25 mg/kg Example 1), once daily for 14 days)	overt toxicity [1]	antitumor activity (tumor stasis) [4]	antitumor activity (tumor stasis) ([1]; 25 mg/kg of Example 1, once daily for 14 days)	IC50 [5] [nM]
Nc1nccc(Oc2ccc(NC(=O)c3c[nH]cc(-c4ccc(F)cc4)c3=O)cc2F)c1Cl [Example 1, N-(4-(2-Amino-3-chloropyridin-4-yloxy)-3-fluorophenyl)-5-(4-fluorophenyl)-4-oxo-1,4-dihydropyridine-3-carboxamide]	1.7	39		No overt toxicity	complete tumor stasis	complete tumor stasis	15
